Test results published in patent US8236510B2, “Protein showing enhanced expression in cancer cells” (Agensys, Inc., priority 1999, dated 2012).
Like-named read-outs stand apart in the source and are kept apart here.

Legend:
[1] = test system: cAMP accumulation in PC3-101P3A11 cells; test: cAMP accumulation in PC3 and PC3-101P3A11 cells (enzyme immunoassay); assay type: cell-based, human
Experimental: Olfactory receptors are known to regulate biological responses by activating adenylate cyclase. In order to confirm that 101P3A11 functions as a GPCR and mediates the activation of adenylate cyclase, cAMP accumulation in PC3 and PC3-101P3A11 cells were compared (FIG. 32). Control PC3 and PC3-101P3A11 cells were grown in a low concentration of fetal bovine serum (FBS) for 14 hrs in the presence or absence of pertussis toxin (PTX). The cells were stimulated with 0.1% or 10% FBS, washed in PBS and lysed using a lysis buffer provided by Amersham Pharmacia. Intracellular concentration of cAMP was measured using a commercially available enzyme immunoassay (EIA) according to the manufacturer's recommendations (Amersham Pharmacia). Each assay was performed in duplicate. Calculations of cAMP concentrations were based on OD450 of the standard curve. Expression of 101P3A11 induced a four-fold increase in cAMP accumulation in the absence of stimulation. Treatment with 10% FBS further enhanced cAMP accumulation in PC3-101P3A11 cells to nearly seven-fold over control PC3-neo cells. 101P3A11 mediated cAMP accumulation was inhibited by PTX.
In order to confirm that anti-101P3A11 pAb has a detectable effect on cAMP accumulation, PC3 and PC3-101P3A11 cells were grown in 0.1% FBS and treated with anti-101P3A11 pAb. Cells were analyzed for cAMP content as described in FIG. 32. […]

PC3-101P3A11 cells = test: Proliferation of PC3-101P3A11 and PC3-neo cells; assay type: cell-based, human; settings: PC3-101P3A11 cells, dose dependent
Experimental: Since adenylate cyclase activity modulates intracellular levels of cAMP and induce downstream signaling events such as activation of protein kinase A, calcium and ERK MAPK signaling (Pierce K. L., et al, Oncogene. 2001, 20: 1532), we determined that PTX, an inhibitor of adenylate cyclase signaling, prevents 101P3A11-mediated ERK phosphorylation along with inhibiting cAMP accumulation (FIG. 33 and FIG. 34). PC3-neo and PC3-101P3A11 cells were grown overnight in 0.1% FBS in media alone or in the presence of pertussis toxin (PTX). Cells were stimulated with 0.1% or 10% FBS (FIG. 33) or 10% FBS, EGF or GRP (FIG. 34). Cells were lysed and analyzed by Western blotting using anti-Phospho-ERK mAb. Expression of 101P3A11 mediated ERK phosphorylation by 10% FBS in PC3 cells, which was inhibited by PTX (FIG. 33 and FIG. 34).
GPCR transmit their signal by activating trimeric G proteins. Once GPCRs are activated, the associated Ga subunit binds GTP, dissociates from the receptor and participates in downstream signaling events (Schild, D., and Restrepo, D. Physiol Rev. 1998, 78:429-66). In order to determine that inhibition of Ga subunits has an effect on 101P3A11 mediated cell growth, the effect of two Ga inhibitors on the proliferation of 3T3-101P3A11 cells was investigated. Control 3T3 and 3T3-101P3A11 cells were grown in the presence or absence of suramin or its derivative NF 449 (Sigma). Cells were analyzed for proliferation 72 hours later (FIG. 35). The experiment was performed in triplicate. […] This response was 101P3A11 specific as suramin and NF449 had no effect on the proliferation of control 3T3 cells. Similarly, inhibition of G protein activation by suramin and NF449 in PC3 cells inhibits the proliferation of PC3-101P3A11 cells grown in 5% FBS (Figure M4). […] This ERK phosohorylation and activation was inhibited by suramin and NF449 in PC3-101P3A11 and 3T3-101P3A11 cells. ERK phosphorylation was inhibited in a dose dependent manner in PC3-101P3A11 cells treated with suramin. […]

## pertussis toxin [PTX]
[1]
  inhibition of 101P3A11 mediated cAMP accumulation: partially inhibited
[1]; listed as pertussis toxin
  inhibition of 101P3A11 mediated cAMP accumulation: inhibited
PC3-101P3A11 cells
  inhibition of proliferation: inhibited
